ChEMBL document CHEMBL4665745, “Bioactive Lignans from Hypoestes aristata” (J Nat Prod, 2020)
The source made the active and inactive calls. No cut-off for these calls is given here.

Columns and labels:
[1] = target: Human immunodeficiency virus type 1 protease (Human immunodeficiency virus 1) (UniProt Q72874); test: Inhibition of HIV-1 protease at >100 uM after 1 hr by fluorescence assay; conditions: dose microM >100, time 1.0 hrs
[2] = target: Human immunodeficiency virus type 1 protease (Human immunodeficiency virus 1) (UniProt Q72874); test: Inhibition of HIV-1 protease at <60 uM after 1 hr by fluorescence assay; conditions: dose microM <60, time 1.0 hrs
MDA-MB-231 [3] = test: Cytotoxicity against human MDA-MB-231 cells assessed as reduction in cell viability after 48 hrs; format: functional, cell-based
MDA-MB-231 [4] = test: Cytotoxicity against human MDA-MB-231 cells assessed as reduction in cell viability at >90 uM after 48 hrs; format: functional, cell-based; conditions: dose microM >90, time 48.0 hrs
MCF7 [5] = test: Cytotoxicity against human MCF7 cells assessed as reduction in cell viability at <90 uM after 48 hrs; format: functional, cell-based; conditions: dose microM <90, time 48.0 hrs
MCF7 [6] = test: Cytotoxicity against human MCF7 cells assessed as reduction in cell viability after 48 hrs; format: functional, cell-based

COc1cc([C@H]2OC[C@H]3[C@@H]2CO[C@@H]3c2cc(OC)c(O)c(OC)c2)ccc1O
inhibition [1]: Active

CC(=O)O[C@H](c1ccc2c(c1)OCO2)[C@H]1COC(=O)[C@@H]1[C@H](OC(C)=O)c1ccc2c(c1)OCO2
inhibition [2]: Active
Activity (MDA-MB-231 [3]): Active
inhibition [1]: Active
Activity (MDA-MB-231 [4]): inactive
Activity (MCF7 [5]): inactive
Activity (MCF7 [6]): Active

O=C1OC[C@H](Cc2ccc3c(c2)OCO3)[C@H]1Cc1ccc2c(c1)OCO2
inhibition [2]: Active
inhibition [1]: Active

CC(=O)O[C@@H](c1ccc2c(c1)OCO2)[C@H]1COC(O)[C@@H]1[C@@H](OC(C)=O)c1ccc2c(c1)OCO2 (stereo partly specified)
Activity (MDA-MB-231 [3]): Active
inhibition [1]: Active
Activity (MDA-MB-231 [4]): inactive
Activity (MCF7 [5]): inactive
Activity (MCF7 [6]): Active

CC(=O)O[C@H](c1ccc2c(c1)OCO2)[C@H]1COC(=O)[C@@H]1[C@H](O)c1ccc2c(c1)OCO2
Activity (MDA-MB-231 [3]): Active
inhibition [1]: Active
Activity (MDA-MB-231 [4]): inactive
Activity (MCF7 [5]): inactive
Activity (MCF7 [6]): Active

CC(=O)N[C@H](C(=O)N[C@H](C(=O)N[C@@H](CC(C)C)[C@@H](O)CC(=O)N[C@@H](C)C(=O)N[C@@H](CC(C)C)[C@@H](O)CC(=O)O)C(C)C)C(C)C
Activity (MDA-MB-231 [4]): inactive
Activity (MCF7 [5]): inactive
